The experiment deals with C57BL/Ksola (db/db) mice. Briefly: Antidiabetic effects in db/db diabetic mouse model. Conditions: serum, 60 mg/kg daily oral for 17 days. Format: in vivo. An excerpt: C57BL/Ksola (db/db) mice have a defect in leptin signaling, leading to hyperphagia, obesity, hypertriglyceridemia, and diabetes. Moreover, unlike ob/ob mice on a C57BL/6J background, db/db mice on a C57BLKS background undergo failure of their insulin-producing pancreatic islet cells, resulting in progression from hyperinsulinemia (associated with peripheral insulin resistance) to hypoinsulinemic diabetes.
Male obese (db/db homozygote) C57BL/Ksola mice approximately 8 weeks of age, were obtained from Jackson Labs (Bar Harbor, Me.) and sorted into groups of 7 animals each animals such that the body weights (40-45 g) and serum glucose levels (≧300 mg/dl in fed state) were similar between groups. A minimum of 7 days was allowed for adaptation after arrival. All animals were maintained under controlled temperature (23° C.), relative humidity (50±5%) and light (7:00-19:00), and allowed free access to standard chow (Formulab Diet 5008, Quality Lab Products, Elkridge, Md.) and water.
Groups of mice received daily oral doses of vehicle (1% hydroxypropylmethylcellulose) or Compound CS (60 mg/kg) for 17 days. At the end of the treatment period, blood samples were collected and serum glucose, triglycerides, and free fatty acids were measured.

As for `Cc1cccc(C)c1CSc1ccc(C(=O)CCC(=O)O)cc1` [Compound CS, 4-(4-[(2,6-Dimethylbenzyl)-thio]-phenyl)-4-oxobutyric acid], the “Free Fatty Acids” value was 2034 ± 195 µM and the Triglycerides stood at 150 ± 10 mg/dL. Besides, the Glucose (±SEM) is 593 ± 77 mg/dL.

The record behind these values is patent US7906675B2, “Compounds for the treatment of metabolic disorders” (Wellstat Therapeutics Corporation, priority 2003, dated 2011).
